Consider 17 compounds from patent US20210047304A1, “Bromodomain Inhibitors” (AbbVie Inc., priority 2016, published 2021).

Where only a bound is given, the exact number is not on record here.

As a reminder, the Ki is a dissociation constant, usually derived from enzyme kinetics or from competition with a known ligand.

For the first assay, the target named is BRD4 (BDI_K57-E168) (Homo sapiens, UniProt O60885). Description: TR-FRET bromodomain binding assay, BRD4 BDI.
Conditions: not given
In turn, `CC(=O)N[C@H]1CC[C@H](Oc2cc(=O)n(C)cc2-c2cc(C(C)(C)O)ccc2Oc2c(C)cc(F)cc2C)CC1` [Example 3, N-[trans-4-({5-[2-(4-fluoro-2,6-dimethylphenoxy)-5-(2-hydroxypropan-2-yl)phenyl]-1-methyl-2-oxo-1,2-dihydropyridin-4-yl}oxy)cyclohexyl]acetamide] returned a Ki of 1020 nM.

`Cc1cc(F)cc(C)c1Oc1ccc(C(C)(C)O)cc1-c1cn(C)c(=O)cc1O[C@H]1CC[C@H](N2NCCC2=O)CC1` [Example 109, 5-[2-(4-fluoro-2,6-dimethylphenoxy)-5-(2-hydroxypropan-2-yl)phenyl]-1-methyl-4-{[trans-4-(5-oxopyrazolidin-1-yl)cyclohexyl]oxy}pyridin-2(1H)-one] came in with a Ki of over 13000 nM.

Take `CNC(=O)N[C@H]1CC[C@H](Oc2cc(=O)n(C)cc2-c2cc(C(C)(C)O)ccc2Oc2c(C)cc(F)cc2C)CC1` [Example 128, N-[trans-4-({5-[2-(4-fluoro-2,6-dimethylphenoxy)-5-(2-hydroxypropan-2-yl)phenyl]-1-methyl-2-oxo-1,2-dihydropyridin-4-yl}oxy)cyclohexyl]-N′-methylurea]: the Ki was 2110 nM.

`Cc1cccc(C)c1Oc1ccc(CN(C)C(N)=O)cc1-c1cn(C)c(=O)cc1O[C@H]1CC[C@H](NC(=O)C2(C)CC2)CC1` [Example 115, N-[trans-4-({5-[5-{[carbamoyl(methyl)amino]methyl}-2-(2,6-dimethylphenoxy)phenyl]-1-methyl-2-oxo-1,2-dihydropyridin-4-yl}oxy)cyclohexyl]-1-methylcyclopropane-1-carboxamide]: the Ki came out at 2920 nM.

On to `CC(=O)N[C@H]1CC[C@H](Oc2cc(=O)n(C)cc2-c2cc(C(C)(C)O)cnc2Oc2c(C)cc(C(C)(C)O)cc2C)CC1` [Example 17, N-[trans-4-({5′-(2-hydroxypropan-2-yl)-2′-[4-(2-hydroxypropan-2-yl)-2,6-dimethylphenoxy]-1-methyl-6-oxo[1,6-dihydro[3,3′-bipyridine]]-4-yl}oxy)cyclohexyl]acetamide], for which the affinity, expressed as Ki, was 1170 nM.

With `Cc1cc(F)cc(C)c1Oc1ccc(C(C)(C)O)cc1-c1cn(C)c(=O)cc1O[C@H]1CC[C@H](N(C)C(=O)C2(C)CC2)CC1` [Example 58, N-[trans-4-({5-[2-(4-fluoro-2,6-dimethylphenoxy)-5-(2-hydroxypropan-2-yl)phenyl]-1-methyl-2-oxo-1,2-dihydropyridin-4-yl}oxy)cyclohexyl]-N,1-dimethylcyclopropane-1-carboxamide], affinity was put at a Ki of 783 nM.

In the case of `Cc1cc(F)cc(C)c1Oc1ccc(C(C)(C)O)cc1-c1cn(C)c(=O)cc1O[C@H]1CC[C@H](NC(=O)C2(C)CC(=O)C2)CC1` [Example 87, N-[trans-4-({5-[2-(4-fluoro-2,6-dimethylphenoxy)-5-(2-hydroxypropan-2-yl)phenyl]-1-methyl-2-oxo-1,2-dihydropyridin-4-yl}oxy)cyclohexyl]-1-methyl-3-oxocyclobutane-1-carboxamide], the inhibition constant Ki turned out to be 2430 nM.

Compound `CC(=O)N[C@H]1CC[C@H](N(C)c2cc(=O)n(C)cc2-c2cc(C(C)(C)O)ccc2Oc2c(C)cc(F)cc2C)CC1` [Example 13, N-{trans-4-[{5-[2-(4-fluoro-2,6-dimethylphenoxy)-5-(2-hydroxypropan-2-yl)phenyl]-1-methyl-2-oxo-1,2-dihydropyridin-4-yl}(methyl)amino]cyclohexyl}acetamide] had an inhibitory constant (Ki) of over 13000 nM.

Compound `Cc1cc(F)cc(C)c1Oc1ccc(C(C)(C)O)cc1-c1cn(C)c(=O)cc1O[C@H]1CC[C@H](NC(=O)CC(C)(C)CO)CC1` [Example 118, N-[trans-4-({5-[2-(4-fluoro-2,6-dimethylphenoxy)-5-(2-hydroxypropan-2-yl)phenyl]-1-methyl-2-oxo-1,2-dihydropyridin-4-yl}oxy)cyclohexyl]-4-hydroxy-3,3-dimethylbutanamide] gave an inhibitory constant (Ki) of 1910 nM.

The compound `CC(=O)N(N)[C@H]1CC[C@H](Oc2cc(=O)n(C)cc2-c2cc(C(C)(C)O)ccc2Oc2c(C)cc(F)cc2C)CC1` [Example 98, N-[trans-4-({5-[2-(4-fluoro-2,6-dimethylphenoxy)-5-(2-hydroxypropan-2-yl)phenyl]-1-methyl-2-oxo-1,2-dihydropyridin-4-yl}oxy)cyclohexyl]acetohydrazide] showed a Ki of 1140 nM.

`Cc1cc(F)cc(C)c1Oc1ccc(C(C)(C)O)cc1-c1cn(C)c(=O)cc1O[C@H]1C[C@@H](CNC(=O)OC(C)(C)C)C1` [Example 8, tert-butyl {[cis-3-({5-[2-(4-fluoro-2,6-dimethylphenoxy)-5-(2-hydroxypropan-2-yl)phenyl]-1-methyl-2-oxo-1,2-dihydropyridin-4-yl}oxy)cyclobutyl]methyl}carbamate] yielded a Ki of 2700 nM.

Turning to `Cc1cc(F)cc(C)c1Oc1ccc(C(C)(C)O)cc1-c1cn(C)c(=O)cc1O[C@H]1CC[C@H](NC(=O)C2(C(N)=O)CC2)CC1` [Example 111, N-[trans-4-({5-[2-(4-fluoro-2,6-dimethylphenoxy)-5-(2-hydroxypropan-2-yl)phenyl]-1-methyl-2-oxo-1,2-dihydropyridin-4-yl}oxy)cyclohexyl]cyclopropane-1,1-dicarboxamide], the inhibition constant Ki was determined as 1190 nM.

Compound `Cc1cc(F)cc(C)c1Oc1ccc(C(C)(C)O)cc1-c1cn(C)c(=O)cc1O[C@H]1CC[C@H](N2C(=O)c3ccccc3C2=O)CC1` [Example 43, 2-[trans-4-({5-[2-(4-fluoro-2,6-dimethylphenoxy)-5-(2-hydroxypropan-2-yl)phenyl]-1-methyl-2-oxo-1,2-dihydropyridin-4-yl}oxy)cyclohexyl]-1H-isoindole-1,3(2H)-dione] registered a Ki of over 13000 nM.

`CC(=O)NC[C@H]1C[C@H](Oc2cc(=O)n(C)cc2-c2cc(C(C)(C)O)ccc2Oc2c(C)cc(F)cc2C)C1` [Example 6, N-{[trans-3-({5-[2-(4-fluoro-2,6-dimethylphenoxy)-5-(2-hydroxypropan-2-yl)phenyl]-1-methyl-2-oxo-1,2-dihydropyridin-4-yl}oxy)cyclobutyl]methyl}acetamide] registered a Ki of 720 nM.

For the compound `CC(=O)N(CCO)[C@H]1CC[C@H](Oc2cc(=O)n(C)cc2-c2cc(C(C)(C)O)ccc2Oc2c(C)cc(F)cc2C)CC1` [Example 54, N-[trans-4-({5-[2-(4-fluoro-2,6-dimethylphenoxy)-5-(2-hydroxypropan-2-yl)phenyl]-1-methyl-2-oxo-1,2-dihydropyridin-4-yl}oxy)cyclohexyl]-N-(2-hydroxyethyl)acetamide], affinity was put at a Ki of 2260 nM.

`CCN1CC(=O)N([C@H]2CC[C@H](Oc3cc(=O)n(C)cc3-c3cc(C(C)(C)O)ccc3Oc3c(C)cc(F)cc3C)CC2)C1=O` [Example 127, 1-ethyl-3-[trans-4-({5-[2-(4-fluoro-2,6-dimethylphenoxy)-5-(2-hydroxypropan-2-yl)phenyl]-1-methyl-2-oxo-1,2-dihydropyridin-4-yl}oxy)cyclohexyl]imidazolidine-2,4-dione]: the Ki turned out to be 8850 nM.

Still in this assay, the particulars now being: mean Ki; 12 nM His tagged BRD4 (BDI_K57-E168), 100 nM Alexa647 probe; Ki calculated from IC50, probe Kd and probe concentration.
As for “methyl [trans-4-({5-[2-(4-fluoro-2,6-dimethylphenoxy)-5-(2-hydroxypropan-2-yl)phenyl]-1-methyl-2-oxo-1,2-dihydropyridin-4-yl}oxy)cyclohexyl]methylcarbamate [Example 21]”, the inhibition constant (Ki) is 3020 nM.
